Experimental data published in ChEMBL document CHEMBL5053526, “Synthesis and biological evaluation of cajanonic acid A derivatives as potential PPARγ antagonists” (2021).
Active and inactive are the calls of the source. No cut-off for these calls is given here.

Key:
[1] = molecular target: T1, Peroxisome proliferator-activated receptor gamma (Homo sapiens) (UniProt P37231); test: Antagonist activity at PPARgamma in HEK293 cells assessed as suppression of rosiglitazone induced PPARgamma transactivation at 30 uM by dual-luciferase reporter gene assay relative to control; format: cell-based; design: scale not given: the % may be the effect or the level left
T1 sequence (whole entry): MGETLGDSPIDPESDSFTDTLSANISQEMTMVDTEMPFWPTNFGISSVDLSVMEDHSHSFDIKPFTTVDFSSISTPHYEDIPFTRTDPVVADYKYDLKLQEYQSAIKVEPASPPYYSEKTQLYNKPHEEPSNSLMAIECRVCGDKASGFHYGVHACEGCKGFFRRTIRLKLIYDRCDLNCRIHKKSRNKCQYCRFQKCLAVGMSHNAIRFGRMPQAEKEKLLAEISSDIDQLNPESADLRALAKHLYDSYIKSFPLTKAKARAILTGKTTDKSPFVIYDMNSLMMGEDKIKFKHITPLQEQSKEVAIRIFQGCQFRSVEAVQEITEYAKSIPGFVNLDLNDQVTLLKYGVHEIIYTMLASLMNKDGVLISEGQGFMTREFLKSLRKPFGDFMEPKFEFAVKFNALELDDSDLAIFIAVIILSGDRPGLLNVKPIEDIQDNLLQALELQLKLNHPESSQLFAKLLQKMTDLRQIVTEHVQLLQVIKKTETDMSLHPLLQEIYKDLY

[2] = test system: HepG2; test: Insulin-sensitizing activity in human HepG2 cells assessed as glucose consumption at 10 uM (Rvb= 2.04 +/- 0.12 mM); format: functional
[3] = test system: HepG2; test: Insulin-sensitizing activity in human HepG2 cells assessed as increase in glucose consumption at 10 uM relative to control; format: functional
[4] = molecular target: T1, Peroxisome proliferator-activated receptor gamma (Homo sapiens); test: Antagonist activity at PPARgamma in HEK293 cells assessed as fold increase in suppression of rosiglitazone induced PPARgamma transactivation at 30 uM by dual-luciferase reporter gene assay relative to CAA; format: cell-based
[5] = test system: HepG2; test: Insulin-sensitizing activity in human HepG2 cells assessed as fold change in glucose consumption at 10 uM relative to CAA; format: functional
[6] = test system: HepG2; test: Insulin-sensitizing activity in human HepG2 cells assessed as fold change in glucose consumption at 10 uM relative to pioglitazone; format: functional
[7] = species: Mus musculus; test: Hypoglycemic activity in db/db mouse assessed as improvement in oral glucose tolerance measured up to 120 mins by OGTT; format: functional, organism-based

| Compound | Activity ([1]; filed as antagonist) [%] | Activity [1] [%] | fold change (FC) [4] | Activity [2] [mM] | Activity [3] [%] | fold change (FC) [5] | fold change (FC) [6] | Activity [7] |
| --- | --- | --- | --- | --- | --- | --- | --- | --- |
| COc1cc(O)c(C(=O)O)c(CC(=O)c2ccc(Cl)cc2)c1 | – | 12 | – | 2.37 | 16.3 | – | – | – |
| COc1cc(O)c(C(=O)O)c(CC(=O)c2ccc(F)cc2)c1CC=C(C)C | 72.8 | – | – | 2.85 | 39.7 | – | – | – |
| COc1cc2c(c(OCC=C(C)C)c1)C(=O)N(C(C)c1cccc(C(F)(F)F)c1)CC2 (centres undefined) | 79.4 | – | – | 2.66 | 30.6 | – | – | – |
| COc1cc2c(c(OCC=C(C)C)c1)C(=O)N(C(C)c1ccccc1)CC2 (centres undefined) | 81.7 | – | – | 2.62 | 28.5 | – | – | – |
| COc1cc(O)c(C(=O)O)c(CC(=O)c2ccc(Cl)cc2Cl)c1 | – | 15.9 | – | 2.25 | 10.2 | – | – | – |
| COc1cc2c(c(OCC=C(C)C)c1)C(=O)N(Cc1cccc(C(F)(F)F)c1)CC2 | 98.2 | – | 1.3 | 3.07 | 50.6 | 1.5 | 1.2 | Active |
| COc1cc(O)c(C(=O)O)c(CC(=O)c2ccc(Cl)cc2Cl)c1CC=C(C)C | 54.3 | – | – | 2.52 | 23.1 | – | – | – |
| COc1cc2c(c(OCC=C(C)C)c1)C(=O)N(Cc1cccc(F)c1)CC2 | 75.1 | – | – | 2.8 | 37.4 | – | – | – |
| COc1cc(O)c(C(=O)O)c(CS(=O)(=O)c2ccccc2)c1 | – | -14 | – | 1.85 | -9.4 | – | – | – |
| COc1cc(O)c(C(=O)O)c(CS(=O)(=O)c2ccccc2)c1CC=C(C)C | – | -1 | – | 2.14 | 4.9 | – | – | – |
| CCc1ccc(CCOc2ccc(CC3SC(=O)NC3=O)cc2)nc1 (centres undefined) [PIOGLITAZONE] | – | – | – | 2.92 | 43.3 | – | – | – |
| COc1cc(O)c(C(=O)O)c(CC(=O)c2ccc(Cl)cc2)c1CC=C(C)C | – | 11.3 | – | 2.6 | 27.5 | – | – | – |
| COc1cc2c(c(OCC=C(C)C)c1)C(=O)N(Cc1ccc(F)c(Cl)c1)CC2 | 61.1 | – | – | 2.79 | 36.9 | – | – | – |
| COc1cc(O)c(C(=O)O)c(CC(=O)c2ccc(F)cc2)c1 | – | 6.3 | – | 2.02 | -1 | – | – | – |

Continued, in another order:

| Activity ([1]; filed as antagonist) [%] | Activity [1] [%] | fold change (FC) [4] | Compound | Activity [2] [mM] | Activity [3] [%] | fold change (FC) [5] | fold change (FC) [6] | Activity [7] |
| --- | --- | --- | --- | --- | --- | --- | --- | --- |
| 73.7 | – | – | COc1cc(O)c(C(=O)O)c(CC(=O)c2ccccc2)c1CC=C(C)C | 2.73 | 34 | – | – | – |
| 90.2 | – | – | COc1cc(CC(=O)c2cccs2)c(C(=O)O)c(O)c1CC=C(C)C | 2.43 | 19.1 | – | – | – |
| – | 8.7 | – | COc1cc(O)c(C(=O)O)c(CC(=O)c2cccs2)c1 | 2.24 | 9.1 | – | – | – |
| 93.4 | – | – | COc1cc(CC(=O)c2ccc(F)cc2)c(C(=O)O)c(O)c1CC=C(C)C | 2.97 | 45.6 | – | – | – |
| 83.2 | – | – | COc1cc(CC(=O)c2ccc(Cl)cc2Cl)c(C(=O)O)c(O)c1CC=C(C)C | 2.69 | 31.9 | – | – | – |
| 84.6 | – | – | COc1cc(O)c(C(=O)O)c(CC(=O)c2cccs2)c1CC=C(C)C | 2.41 | 18 | – | – | – |
| – | 1.9 | – | COc1cc(CS(=O)(=O)c2ccccc2)c(C(=O)O)c(O)c1CC=C(C)C | 1.97 | -3.4 | – | – | – |
| – | 28.1 | – | COc1cc(CC(=O)c2ccc(Cl)cc2)c(C(=O)O)c(O)c1CC=C(C)C | 2.59 | 26.2 | – | – | – |
